In patent US9469615B2, “Quinoxalines and AZA-quinoxalines as CRTH2 receptor modulators” (Merck Sharp & Dohme Corp., priority 2010, dated 2016):

Target: T1, hCRTH2 (Homo sapiens, UniProt Q9Y5Y4)
T1 construct: expressed in transfected cells; host or cells: HEK (human embryonic kidney) cells expressing hCRTH2; membrane preparation
T1 sequence (Q9Y5Y4 1-395): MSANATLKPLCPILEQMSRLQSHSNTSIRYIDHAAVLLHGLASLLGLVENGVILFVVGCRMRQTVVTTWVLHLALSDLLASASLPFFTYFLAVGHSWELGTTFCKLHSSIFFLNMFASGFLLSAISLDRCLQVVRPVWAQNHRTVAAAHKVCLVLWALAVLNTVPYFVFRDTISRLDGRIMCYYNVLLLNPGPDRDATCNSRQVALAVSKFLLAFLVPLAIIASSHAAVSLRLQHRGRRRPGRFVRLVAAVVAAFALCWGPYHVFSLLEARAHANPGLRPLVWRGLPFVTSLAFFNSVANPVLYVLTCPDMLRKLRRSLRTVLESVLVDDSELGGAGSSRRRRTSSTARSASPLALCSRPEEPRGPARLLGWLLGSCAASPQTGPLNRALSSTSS
Assay: Radioligand binding assay ([3H]PGD2 competition, HEK-hCRTH2 membranes)
Conditions: [3H]PGD2 binding
Description: Biological Assays Radioligand Binding Assay.
Radioligand binding assays were performed at room temperature in 50 mM Tris-HCl pH 7.4, 1 mM EDTA containing 2 mM MnCl2 and 3.0 nM [^3H]PGD2 (New England Nuclear, Boston, Mass.) (171 Ci mmol^−1), in a final volume of 0.2 mL. Competing ligands were diluted in dimethylsulfoxide (Me2SO) that was kept constant at 1% (v/v) of the final incubation volume. The reaction was initiated by the addition of 8-20 μg of membrane protein prepared from a human embryonic kidney (HEK)-hCRTH2 cell line. Total and non-specific binding were determined in the absence and the presence of 10 μM PGD2, respectively. […] The reaction was routinely conducted for 60 min at room temperature and terminated by rapid filtration through prewetted (0.3% polyethyleneimine) 96-well printed Filtermate™ (Wallac) using a Tomtec® harvester (Hamden, Conn.). After washing with cold buffer, the filter was dried for 2 minutes in microwave, and Meltilex Scintillator sheet (Wallac) was melted on for 2 min. The radioactivity was measured with Betaplate model 1205 (Wallac).

## C[C@@H](NC(=O)c1ccc2nc(-c3ccc(Cl)cc3)c(CC3CCC(C(=O)O)C3)nc2c1)c1ccc(F)cc1 (mixture of isomers) [compound 28, 3-((3-(4-chlorophenyl)-7-((R)-1-(4-fluorophenyl)ethylcarbamoyl)quinoxalin-2-yl)methyl)cyclopentanecarboxylic acid]
Rated A-E (Table A)
  Ki: 2.1 to 20 nM

## O=C(N[C@@H]1CCCc2ccccc21)c1ccc2nc(-c3ccccc3)c(CCCC(F)C(=O)O)nc2c1 (mixture of isomers) [compound 38, 2-fluoro-5-(3-phenyl-7-(((R)-1,2,3,4-tetrahydronaphthalen-1-yl)carbamoyl)quinoxalin-2-yl)pentanoic acid]
Rated A-E (Table A)
  Ki: 20.1 to 200 nM

## CC(NC(=O)c1ccc2nc(-c3ccc(C(F)(F)F)cc3)c(CCCCC(=O)O)nc2c1)c1ccc(-c2ccccc2)cc1 (racemic) [4E, 7-[[(1-[1,1′-biphenyl]-4-ylethyl)amino]carbonyl]-3-[4-(trifluoromethyl)-phenyl]-2-quinoxaline-pentanoic acid]
Rated A-E (Table A)
  Ki: 0.1 to 2 nM

## CC(NC(=O)c1ccc2nc(-c3ccc(C(F)(F)F)cc3)c(CCCCC(=O)O)nc2c1)c1ccc(-c2ccccc2)cc1 (single isomer, unassigned) [4F, 7-[[(1-[1,1′-biphenyl]-4-ylethyl)amino]carbonyl]-3-[4-(trifluoromethyl)-phenyl]-2-quinoxaline-pentanoic acid]
Rated A-E (Table A)
  Ki: 2.1 to 20 nM

## CC(NC(=O)c1ccc2nc(-c3ccc(C(F)(F)F)cc3)c(CCCCC(=O)O)nc2c1)c1ccc(-c2ccccc2)cc1 (single isomer, unassigned) [4G, 7-[[(1-[1,1′-biphenyl]-4-ylethyl)amino]carbonyl]-3-[4-(trifluoromethyl)-phenyl]-2-quinoxaline-pentanoic acid]
Rated A-E (Table A)
  Ki: 2.1 to 20 nM

## O=C(O)C1CC1CCc1nc2cc(C(=O)N3CCC(c4ccccc4)CC3)ccc2nc1-c1ccccc1 (single isomer, unassigned) [20F, 2-(2-(3-phenyl-7-(4-phenylpiperidine-1-carbonyl)quinoxaline-2-yl)ethyl)cyclopropanecarboxylic acid]
Rated A-E (Table A)
  Ki: 2.1 to 20 nM

## O=C(O)C1CC1CCc1nc2cc(C(=O)N3CCC(c4ccccc4)CC3)ccc2nc1-c1ccccc1 (single isomer, unassigned) [20G, 2-(2-(3-phenyl-7-(4-phenylpiperidine-1-carbonyl)quinoxaline-2-yl)ethyl)cyclopropanecarboxylic acid]
Rated A-E (Table A)
  Ki: 2.1 to 20 nM

## O=C(O)C1CC1CCc1nc2cc(C(=O)N3CCC(c4ccccc4)CC3)ccc2nc1-c1ccccc1 (single isomer, unassigned) [20H, 2-(2-(3-phenyl-7-(4-phenylpiperidine-1-carbonyl)quinoxaline-2-yl)ethyl)cyclopropanecarboxylic acid]
Rated A-E (Table A)
  Ki: 2.1 to 20 nM

## O=C(N[C@@H]1CCCc2ccccc21)c1ccc2nc(-c3ccccc3)c(CCCC(F)C(=O)O)nc2c1 (single isomer, unassigned) [38A]
Rated A-E (Table A)
  Ki: 20.1 to 200 nM

## O=C(N[C@@H]1CCCc2ccccc21)c1ccc2nc(-c3ccccc3)c(CCCC(F)C(=O)O)nc2c1 (single isomer, unassigned) [38B]
Rated A-E (Table A)
  Ki: 20.1 to 200 nM

## O=C(O)C1CC1CCc1nc2cc(C(=O)N3CCC(c4ccccc4)CC3)ccc2nc1-c1ccccc1 (single isomer, unassigned) [compound 20, 2-(2-(3-phenyl-7-(4-phenylpiperidine-1-carbonyl)quinoxaline-2-yl)ethyl)cyclopropanecarboxylic acid]
Rated A-E (Table A)
  Ki: 20.1 to 200 nM

## CC(NC(=O)c1ccc2nc(-c3ccc(Cl)cc3)c(CCCCC(=O)O)nc2c1)c1ccccn1 (stereo in doubt) [16AA, 3-(4-chlorophenyl)-7-[[[1(S)-(2-pyridinyl)ethyl]amino]carbonyl]-2-quinoxalinepentanoic acid]
Rated A-E (Table A)
  Ki: 0.1 to 2 nM

## O=C(O)CCCCc1nc2cc(C(=O)N3CCC(c4ccccc4)C3)ccc2nc1-c1ccc(C(F)(F)F)cc1 (stereo in doubt) [compound 152, 7-[(3R)-phenyl-1-pyrrolidinyl)carbonyl]-3-[4-(trifluoromethyl)phenyl]-2-quinoxalinepentanoic acid]
Rated A-E (Table A)
  Ki: 2.1 to 20 nM
Values in text
  Ki: 2.9 nM

## O=C(O)CCCCc1nc2cc(C(=O)N3CCC(c4ccccc4)C3)ccc2nc1-c1ccc(C(F)(F)F)cc1 (stereo in doubt) [compound 153, 7-[(3(S)-phenyl-1-pyrrolidinyl]carbonyl]-3-[4-(trifluoromethyl)phenyl]-2-quinoxalinepentanoic acid]
Rated A-E (Table A)
  Ki: 0.1 to 2 nM

## CC(NC(=O)c1ccc2nc(-c3ccc(C(F)(F)F)cc3)c(CCCCC(=O)O)nc2c1)c1ccncc1 (stereo not drawn) [3AA, 7-[[[1-(4-pyridinyl)ethyl]-amino]carbonyl]-3-[4-(trifluoromethyl)-phenyl]-2-quinoxaline-pentanoic acid]
Rated A-E (Table A)
  Ki: 2.1 to 20 nM

## CC(NC(=O)c1ccc2nc(-c3ccc(C(F)(F)F)cc3)c(CCCCC(=O)O)nc2c1)c1ccccn1 (stereo not drawn) [3AB, 7-[[[1-(2-pyridinyl)ethyl]-amino]carbonyl]-3-[4-(trifluoromethyl)phenyl]-2-quinoxalinepentanoic acid]
Rated A-E (Table A)
  Ki: 2.1 to 20 nM

## O=C(O)CCCCc1nc2cc(C(=O)NCc3ccncc3)ccc2nc1-c1ccc(C(F)(F)F)cc1 [3AC, 7-[[(4-pyridinylmethyl)-amino]carbonyl]-3-[4-(trifluoromethyl)phenyl]-2-quinoxalinepentanoic acid]
Rated A-E (Table A)
  Ki: 2.1 to 20 nM

## O=C(O)CCCCc1nc2cc(C(=O)NCc3cccnc3)ccc2nc1-c1ccc(C(F)(F)F)cc1 [3AD]
Rated A-E (Table A)
  Ki: 2.1 to 20 nM

## O=C(O)CCCCc1nc2cc(C(=O)NCc3ccccn3)ccc2nc1-c1ccc(C(F)(F)F)cc1 [3AE, 7-[[(2-pyridinylmethyl)-amino]carbonyl]-3-[4-(trifluoromethyl)phenyl]-2-quinoxalinepentanoic acid]
Rated A-E (Table A)
  Ki: 2.1 to 20 nM

## O=C(O)CCCCc1nc2cc(C(=O)NCc3ccc(C(F)(F)F)nc3)ccc2nc1-c1ccc(C(F)(F)F)cc1 [3AF, 3-[4-(trifluoromethyl)phenyl]-7-[[[[6-(trifluoromethyl)-3-pyridinyl]methyl]amino]-carbonyl]-2-quinoxaline-pentanoic acid]
Rated A-E (Table A)
  Ki: 2.1 to 20 nM

## COC(=O)c1ccc2nc(-c3ccc(C(F)(F)F)cc3)c(CCCCC(=O)O)nc2c1 [3AG, 7-(methoxycarbonyl)-3-[4-(trifluoromethyl)phenyl]-2-quinoxalinepentanoic acid]
Rated A-E (Table A)
  Ki: 2.1 to 20 nM

## O=C(O)CCCCc1nc2cc(C(=O)Nc3ccc(F)cc3)ccc2nc1-c1cccc(F)c1 [3T, 3-(3-fluorophenyl)-7-[[(4-fluorophenyl)amino]carbonyl]-2-quinoxalinepentanoic acid]
Rated A-E (Table A)
  Ki: 20.1 to 200 nM

## O=C(O)CCCCc1nc2cc(C(=O)Nc3cccc(F)c3)ccc2nc1-c1cccc(F)c1 [3U, 3-(3-fluorophenyl)-7-[[(3-fluorophenyl)amino]carbonyl]-2-quinoxalinepentanoic acid]
Rated A-E (Table A)
  Ki: 20.1 to 200 nM

## O=C(O)CCCCc1nc2cc(C(=O)Nc3ccccc3F)ccc2nc1-c1cccc(F)c1 [3V, 3-(3-fluoropheny)-7-[[(2-fluorophenyl)amino]carbonyl]-2-quinoxalinepentanoic acid]
Rated A-E (Table A)
  Ki: 201 to 700 nM

## C[C@H](NC(=O)c1ccc2nc(-c3ccc(C(F)(F)F)cc3)c(CCCCC(=O)O)nc2c1)c1ccccc1 [3W, 7-[[(1-(S)-phenylethyl)amino]carbonyl]-3-[4-(trifluoromethyl)phenyl]-2-quinoxalinepentanoic acid]
Rated A-E (Table A)
  Ki: 2.1 to 20 nM

## C[C@@H](NC(=O)c1ccc2nc(-c3ccc(C(F)(F)F)cc3)c(CCCCC(=O)O)nc2c1)c1ccccc1 [3X, 7-[[(1-(R)-phenylethyl)amino]carbonyl]-3-[4-(trifluoromethyl)phenyl]-2-quinoxalinepentanoic acid]
Rated A-E (Table A)
  Ki: 2.1 to 20 nM

## O=C(O)CCCCc1nc2cc(C(=O)N3CCN(c4ccccc4)CC3)ccc2nc1-c1ccc(C(F)(F)F)cc1 [3Y, 7-[(4-phenyl-1-piperazinyl)carbonyl]-3-[4-(trifluoromethyl)phenyl]-2-quinoxalinepentanoic acid]
Rated A-E (Table A)
  Ki: 0.1 to 2 nM

## O=C(O)CCCCc1nc2cc(C(=O)C3CC3)ccc2nc1-c1ccc(C(F)(F)F)cc1 [3Z, 7-(cyclopropylcarbonyl)-3-[4-(trifluoromethyl)phenyl]-2-quinoxalinepentanoic acid]
Rated A-E (Table A)
  Ki: 0.1 to 2 nM

## C[C@@H](NC(=O)c1ccc2nc(-c3ccc(C(F)(F)F)cc3)c(CCCCC(=O)O)nc2c1)c1cccc(-c2ccccc2)c1 [4D, 7-[[[1-(R)-[1,1′-biphenyl]-3-ylethyl]amino]carbonyl]-3-[4-(trifluoromethyl)-phenyl]-2-quinoxaline-pentanoic acid]
Rated A-E (Table A)
  Ki: 20.1 to 200 nM

## O=C(O)CCCCc1nc2cc(C(=O)c3ccccc3)ccc2nc1-c1ccc(F)cc1 [5G]
Rated A-E (Table A)
  Ki: 0.1 to 2 nM

## O=C(O)CCCCc1nc2cc(C(=O)Nc3cccc(F)c3)ccc2nc1-c1ccc(F)cc1 [5N, 3-(4-fluorophenyl)-7-[[(3-fluorophenyl)amino]carbonyl]-2-quinoxalinepentanoic acid]
Rated A-E (Table A)
  Ki: 20.1 to 200 nM

## O=C(O)CCCCc1nc2cc(C(=O)Nc3ccc(F)cc3)ccc2nc1-c1ccc(F)cc1 [5O, 3-(4-fluorophenyl)-7-[[(4-fluorophenyl)amino]carbonyl]-2-quinoxalinepentanoic acid]
Rated A-E (Table A)
  Ki: 20.1 to 200 nM
